Results: ChEMBL document CHEMBL2010688, “Tri- and tetrasubstituted pyrazole derivates: regioisomerism switches activity from p38MAP kinase to important cancer kinases” (J Med Chem, 2012)
Active and inactive are the calls of the source. The rule behind the calls is not given here.

Columns and labels:
[1] = biological target: Vascular endothelial growth factor receptor 2 (Homo sapiens, UniProt P35968); test: Inhibition of VEGFR2 using poly(Glu,Tyr) as substrate assessed as [33P-gamma]-ATP incorporation after 60 mins by microplate scintillation counting
Chain of Vascular endothelial growth factor receptor 2 (P35968 whole entry): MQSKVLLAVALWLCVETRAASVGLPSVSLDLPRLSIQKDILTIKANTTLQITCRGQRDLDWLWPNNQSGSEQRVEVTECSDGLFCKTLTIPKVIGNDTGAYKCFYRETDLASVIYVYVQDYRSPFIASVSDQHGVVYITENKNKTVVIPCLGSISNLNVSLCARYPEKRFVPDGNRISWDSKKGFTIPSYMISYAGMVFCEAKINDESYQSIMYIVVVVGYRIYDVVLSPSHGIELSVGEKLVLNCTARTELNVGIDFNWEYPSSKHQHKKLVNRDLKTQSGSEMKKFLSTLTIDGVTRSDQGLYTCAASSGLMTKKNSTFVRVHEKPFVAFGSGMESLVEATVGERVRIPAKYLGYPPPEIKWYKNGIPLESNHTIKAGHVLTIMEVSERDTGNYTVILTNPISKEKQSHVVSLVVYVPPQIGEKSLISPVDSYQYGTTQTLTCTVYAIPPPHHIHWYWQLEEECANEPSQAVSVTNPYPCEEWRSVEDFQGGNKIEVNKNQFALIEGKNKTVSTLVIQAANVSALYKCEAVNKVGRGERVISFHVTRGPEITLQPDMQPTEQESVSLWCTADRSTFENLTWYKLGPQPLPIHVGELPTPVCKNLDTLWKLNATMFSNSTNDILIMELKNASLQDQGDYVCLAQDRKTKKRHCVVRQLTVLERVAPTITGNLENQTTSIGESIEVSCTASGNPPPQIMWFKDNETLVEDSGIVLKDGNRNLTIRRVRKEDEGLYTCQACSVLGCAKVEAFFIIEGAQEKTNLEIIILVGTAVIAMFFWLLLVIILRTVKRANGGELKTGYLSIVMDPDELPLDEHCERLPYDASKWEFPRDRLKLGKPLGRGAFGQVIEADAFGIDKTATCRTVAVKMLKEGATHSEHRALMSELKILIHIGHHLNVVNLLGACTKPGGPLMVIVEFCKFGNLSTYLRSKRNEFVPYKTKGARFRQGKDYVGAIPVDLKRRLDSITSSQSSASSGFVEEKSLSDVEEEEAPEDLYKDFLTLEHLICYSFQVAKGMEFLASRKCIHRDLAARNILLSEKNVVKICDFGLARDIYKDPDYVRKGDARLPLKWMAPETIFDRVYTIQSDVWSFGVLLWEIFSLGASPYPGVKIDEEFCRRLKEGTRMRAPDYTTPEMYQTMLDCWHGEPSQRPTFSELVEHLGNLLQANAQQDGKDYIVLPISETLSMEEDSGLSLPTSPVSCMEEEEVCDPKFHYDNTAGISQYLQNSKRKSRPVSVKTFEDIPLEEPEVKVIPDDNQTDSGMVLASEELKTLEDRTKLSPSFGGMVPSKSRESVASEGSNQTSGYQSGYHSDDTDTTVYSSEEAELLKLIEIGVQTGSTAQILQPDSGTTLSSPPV

[2] = biological target: Mitogen-activated protein kinase 14 (Homo sapiens) (UniProt Q16539); test: Inhibition of p38alpha MAP kinase
Chain of Mitogen-activated protein kinase 14 (Homo sapiens) (Q16539 whole entry): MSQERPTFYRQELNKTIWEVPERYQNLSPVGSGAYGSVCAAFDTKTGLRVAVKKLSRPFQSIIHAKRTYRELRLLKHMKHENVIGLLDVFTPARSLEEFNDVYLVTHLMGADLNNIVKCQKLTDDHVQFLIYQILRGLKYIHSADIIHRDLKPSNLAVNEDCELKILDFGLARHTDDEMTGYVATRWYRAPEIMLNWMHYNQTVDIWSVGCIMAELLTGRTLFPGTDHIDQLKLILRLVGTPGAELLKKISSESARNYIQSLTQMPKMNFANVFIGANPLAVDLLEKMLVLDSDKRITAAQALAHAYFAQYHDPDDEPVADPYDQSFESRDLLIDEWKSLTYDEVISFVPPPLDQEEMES

[3] = biological target: Serine/threonine-protein kinase B-raf (Homo sapiens, UniProt P15056, V600E); test: Inhibition of BRAF V600E mutant using MEK1-KM as substrate assessed as [33P-gamma]-ATP incorporation after 60 mins by microplate scintillation counting
Chain of Serine/threonine-protein kinase B-raf (Homo sapiens, UniProt P15056, V600E) (P15056 2-766 V600E limits assumed): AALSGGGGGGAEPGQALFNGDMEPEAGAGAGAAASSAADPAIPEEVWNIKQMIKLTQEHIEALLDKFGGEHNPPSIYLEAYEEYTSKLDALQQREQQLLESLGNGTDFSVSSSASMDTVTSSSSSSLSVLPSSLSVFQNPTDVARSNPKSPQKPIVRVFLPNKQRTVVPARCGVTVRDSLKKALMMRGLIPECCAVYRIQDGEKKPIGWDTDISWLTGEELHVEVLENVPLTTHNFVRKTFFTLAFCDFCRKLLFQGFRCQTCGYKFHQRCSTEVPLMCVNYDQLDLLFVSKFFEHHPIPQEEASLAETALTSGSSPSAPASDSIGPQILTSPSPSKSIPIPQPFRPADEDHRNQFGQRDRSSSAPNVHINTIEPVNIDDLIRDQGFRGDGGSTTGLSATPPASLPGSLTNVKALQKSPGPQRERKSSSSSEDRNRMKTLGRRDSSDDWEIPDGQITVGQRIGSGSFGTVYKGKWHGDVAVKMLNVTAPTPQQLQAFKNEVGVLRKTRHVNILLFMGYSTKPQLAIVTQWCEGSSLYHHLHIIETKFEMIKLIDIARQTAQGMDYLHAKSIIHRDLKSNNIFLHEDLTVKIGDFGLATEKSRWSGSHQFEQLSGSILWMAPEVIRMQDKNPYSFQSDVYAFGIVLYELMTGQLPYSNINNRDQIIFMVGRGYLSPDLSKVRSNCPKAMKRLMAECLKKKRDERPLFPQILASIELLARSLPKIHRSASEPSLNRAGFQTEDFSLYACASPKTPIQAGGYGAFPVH

[4] = biological target: Proto-oncogene tyrosine-protein kinase Src (Homo sapiens, UniProt P12931); test: Inhibition of SRC using poly(Glu,Tyr) as substrate assessed as [33P-gamma]-ATP incorporation after 60 mins by microplate scintillation counting
Chain of Proto-oncogene tyrosine-protein kinase Src (P12931 2-536 limits assumed): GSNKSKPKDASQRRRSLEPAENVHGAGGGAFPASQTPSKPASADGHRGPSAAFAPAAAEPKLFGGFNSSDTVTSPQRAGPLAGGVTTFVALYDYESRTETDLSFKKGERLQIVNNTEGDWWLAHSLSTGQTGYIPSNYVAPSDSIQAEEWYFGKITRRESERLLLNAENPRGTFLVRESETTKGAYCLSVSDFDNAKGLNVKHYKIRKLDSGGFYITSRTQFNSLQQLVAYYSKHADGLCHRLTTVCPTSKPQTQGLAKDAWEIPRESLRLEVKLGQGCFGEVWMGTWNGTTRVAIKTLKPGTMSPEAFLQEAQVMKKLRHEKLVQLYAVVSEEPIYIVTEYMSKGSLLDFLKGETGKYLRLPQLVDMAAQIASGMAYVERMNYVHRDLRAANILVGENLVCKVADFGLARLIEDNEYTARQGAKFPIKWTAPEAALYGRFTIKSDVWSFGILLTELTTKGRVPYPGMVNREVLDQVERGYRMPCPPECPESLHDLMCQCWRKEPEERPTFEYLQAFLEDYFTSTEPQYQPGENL

[5] = biological target: Serine/threonine-protein kinase B-raf (Homo sapiens, UniProt P15056); test: Inhibition of wild type B-Raf using MEK1-KM as substrate assessed as [33P-gamma]-ATP incorporation after 60 mins by microplate scintillation counting
Chain of Serine/threonine-protein kinase B-raf (Homo sapiens, UniProt P15056) (P15056 whole entry): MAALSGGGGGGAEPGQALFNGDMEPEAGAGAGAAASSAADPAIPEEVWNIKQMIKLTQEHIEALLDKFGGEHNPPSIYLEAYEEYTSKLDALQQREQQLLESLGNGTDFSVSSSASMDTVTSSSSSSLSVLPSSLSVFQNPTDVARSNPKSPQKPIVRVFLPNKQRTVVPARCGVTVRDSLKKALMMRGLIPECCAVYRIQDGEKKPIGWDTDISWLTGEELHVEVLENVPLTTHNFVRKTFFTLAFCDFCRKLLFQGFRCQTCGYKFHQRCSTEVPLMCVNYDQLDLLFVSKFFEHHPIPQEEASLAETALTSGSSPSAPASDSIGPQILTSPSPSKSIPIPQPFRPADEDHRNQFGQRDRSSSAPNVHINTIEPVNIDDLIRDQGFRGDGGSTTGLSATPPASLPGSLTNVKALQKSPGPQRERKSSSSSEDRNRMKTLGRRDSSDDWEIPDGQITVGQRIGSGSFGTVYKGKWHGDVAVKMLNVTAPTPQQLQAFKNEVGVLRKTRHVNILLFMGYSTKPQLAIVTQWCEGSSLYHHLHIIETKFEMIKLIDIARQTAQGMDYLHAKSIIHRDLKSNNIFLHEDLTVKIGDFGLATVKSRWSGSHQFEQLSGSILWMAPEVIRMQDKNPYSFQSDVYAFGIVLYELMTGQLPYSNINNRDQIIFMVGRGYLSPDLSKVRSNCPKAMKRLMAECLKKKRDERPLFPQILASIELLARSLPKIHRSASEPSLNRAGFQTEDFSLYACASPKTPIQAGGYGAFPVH

IC50 [1]	inhibition [2]	IC50 [3]	IC50 [4]	SMILES	IC50 [5]
> 100 µM	inactive	> 100 µM	> 100 µM	CCOC(=O)c1c(-c2ccncc2)nn(-c2c(Cl)cc(Cl)cc2Cl)c1N	–
–	inactive	–	–	COc1ccc(-n2nc(-c3ccncc3)c(-c3ccc(F)cc3)c2N)cc1	–
–	inactive	> 100 µM	–	NC(=O)c1c(-c2ccncc2)nn(-c2c(Cl)cc(Cl)cc2Cl)c1N	–
1.2 µM	inactive	0.8 µM	23 µM	Nc1c(-c2ccc(F)cc2)c(-c2ccncc2)nn1-c1ccc(Cl)cc1	–
–	inactive	–	–	Fc1ccc(-c2cn(-c3ccc(C(F)(F)F)cc3)nc2-c2ccncc2)cc1	–
–	inactive	–	–	NC(=O)c1c(-c2ccncc2)nn(-c2ccccc2)c1N	–
2.4 µM	inactive	1.5 µM	6.7 µM	Nc1c(-c2ccc(F)cc2)c(-c2ccncc2)nn1-c1ccc(C(F)(F)F)cc1	–
–	inactive	> 100 µM	–	Nc1c(C(=O)O)c(-c2ccncc2)nn1-c1c(Cl)cc(Cl)cc1Cl	–
–	inactive	–	–	Nc1c(-c2ccc(F)cc2)c(-c2ccncc2)nn1-c1ccccc1	–
–	inactive	–	> 100 µM	N#Cc1ccc(-n2nc(-c3ccncc3)c(-c3ccc(F)cc3)c2N)cc1	–
2.6 µM	inactive	0.89 µM	53 µM	Cc1ccc(-n2nc(-c3ccncc3)c(-c3ccc(F)cc3)c2N)cc1	–
1.4 µM	inactive	1.4 µM	82 µM	Nc1c(-c2ccc(F)cc2)c(-c2ccncc2)nn1-c1ccc([N+](=O)[O-])cc1	–
0.21 µM	inactive	2.5 µM	2 µM	Fc1ccc(-c2cn(-c3c(Cl)cc(Cl)cc3Cl)nc2-c2ccncc2)cc1	–
–	inactive	> 100 µM	> 100 µM	Nc1cc(-c2ccncc2)nn1-c1c(Cl)cc(Cl)cc1Cl	–

SMILES	IC50 [1]	inhibition [2]	IC50 [3]	IC50 [4]	IC50 [5]
Nc1c(-c2ccc(F)cc2)c(-c2ccncc2)nn1-c1c(Cl)cc(Cl)cc1Cl	0.034 µM	inactive	0.592 µM	0.399 µM	0.27 µM
